Like-named read-outs stand apart in the source and are kept apart here.
Columns and labels:
Recombinant human BACE-1 = Recombinant human BACE-1 (Homo sapiens (Human), UniProt P56817); experiment: Measurement of BACE1 inhibitory activity; format: biochemical; conditions: Recombinant human BACE-1 7.4 nM, substrate peptide 18 nM, pH 5.0, 3 hours at 30° C.; read-out: IC50 (BACE1 enzyme activity)
Protocol: First, 48.5 μl portions of a solution of substrate peptide (Biotin-XSEVNLDAEFRHDSGC-Eu: X=ε-amino-n-capronic acid, Eu=Europium cryptate) were put into respective wells of a 96-well half area microplate (black microplate, Costar). Then, 0.5 μl of a test compound (DMSO (dimethyl sulfoxide) solution) and 1 μl of Recombinant human BACE-1 (R&D systems) were added to each of the wells, and they were reacted for 3 hours at 30° C. […] The final concentration of the substrate peptide was set to 18 nM, and the final concentration of Recombinant human BACE-1 was set to 7.4 nM. The reaction buffer used was a sodium acetate buffer (50 mM sodium acetate, pH 5.0, 0.008% Triton X-100). After the reaction finished, 50 μl portions of a 8.0 μg/ml solution of Streptavidin-XL665 (CIS bio international) in a phosphate buffer (150 mM K2HPO4—KH2PO4, pH 7.0, 0.008% Triton X-100, 0.8 M KF) were added to the respective wells, and the plate was left standing for 1 hour at 30° C. Thereafter, the fluorescence intensity (excitation wavelength: 320 nm, measurement wavelength: 620 nm and 665 nm) was measured with a Wallac 1420 multilabel counter (Perkin Elmer life sciences). The enzyme activity was determined from the count rate at each measurement wavelength (10000× Count 665/Count 620), and the amount needed to inhibit the enzyme activity by 50% (IC50) was calculated.

[1] = tested on: Neuroblastoma SH-SY5Y cells (SH/APPwt) with human wild-type β-APP excessively expressed; experiment: Measurement of β-amyloid (Aβ) production inhibitory effect in cell; format: cell-based; conditions: 24 hours incubation, Amyloid-β 1-40 HTRF
Protocol: Neuroblastoma SH-SY5Y cells (SH/APPwt) with human wild-type β-APP excessively expressed therein were prepared at 8×10^5 cells/mL, and 150 μl portions thereof were inoculated into respective wells of a 96-well culture plate (Falcon). The cells were cultured for 2 hours at 37° C. in a 5% gaseous carbon dioxide incubator. […] Namely, the final DMSO concentration was 1%, and the amount of the cell culture was 200 μl. After the incubation was performed for 24 hours from the addition of the test compound, 100 μl of the culture supernatant was collected from each fraction. The amount of the Aβ in each fraction was measured. The Aβ amount was measured as follows. 10 μl of a homogeneous time resolved fluorescence (HTRF) measurement reagent (Amyloid-β 1-40 peptide; IBA Molecular Holding, S.A.) and 10 μl of the culture supernatant were put into a 384-well half area microplate (black microplate, Costar) and mixed with each other, and then left standing overnight at 4° C. while the light was shielded. Then, the fluorescence intensity (excitation wavelength: 337 nm, measurement wavelength: 620 nm and 665 nm) was measured with a Wallac 1420 multilabel counter (Perkin Elmer life sciences).

Metabolic stability test = format: in vitro ADME; conditions: human liver microsomes 0.5 mg protein/mL, NADPH, 30 minutes at 37° C., compound concentration 2 μM
Protocol: The target compound was reacted with commercially available pooled human liver microsomes for a predetermined time period. The residual rate was calculated by comparing the reacted sample and unreacted sample, and thus the degree of metabolism in liver was evaluated.
In 0.2 mL of a buffer (50 mmol/L tris-HCl pH 7.4, 150 mmol/L potassium chloride, 10 mmol/L magnesium chloride) containing human liver microsomes 0.5 mg protein/mL, reaction was carried out in the presence of 1 mmol/L NADPH for 0 minute or 30 minutes at 37° C. (oxidative reaction). After the reaction, 50 μL of the reaction solution was added to and mixed with 100 μL of a solution of methanol/acetonitrile=1/1 (v/v), and the mixture was centrifuged for 15 minutes at 3000 rpm. The test compound in the centrifuged supernatant was quantified by LC/MS/MS, and the residual amount of the test compound after the reaction was calculated based on the compound amount at 0-minute reaction set as 100%.
(Results) The residual rate at a compound concentration of 2 μM is shown below.

CYP3A4 [2] = molecular target: T1, CYP3A4 (Homo sapiens (Human), UniProt P08684); experiment: CYP3A4 fluorescent MBI test; format: in vitro ADME; conditions: E. coli-expressing CYP3A4, 7-BFC substrate, pre-reaction 0 or 30 minutes
T1 sequence (P08684 whole entry): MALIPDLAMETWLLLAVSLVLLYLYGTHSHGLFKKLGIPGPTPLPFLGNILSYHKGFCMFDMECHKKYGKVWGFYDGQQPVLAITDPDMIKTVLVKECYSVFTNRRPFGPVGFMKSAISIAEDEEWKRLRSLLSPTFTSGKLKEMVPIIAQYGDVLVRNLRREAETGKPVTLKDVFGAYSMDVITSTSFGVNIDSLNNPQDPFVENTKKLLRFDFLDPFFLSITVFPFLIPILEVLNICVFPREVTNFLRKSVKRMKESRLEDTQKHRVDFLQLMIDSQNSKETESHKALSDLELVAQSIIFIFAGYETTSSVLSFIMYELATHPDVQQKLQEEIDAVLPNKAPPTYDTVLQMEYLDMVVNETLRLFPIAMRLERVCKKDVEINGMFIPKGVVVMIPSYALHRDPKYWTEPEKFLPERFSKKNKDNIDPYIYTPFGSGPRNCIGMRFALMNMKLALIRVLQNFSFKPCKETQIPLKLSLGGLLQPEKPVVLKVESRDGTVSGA
Protocol: The CYP3A4 fluorescent MBI test is a test to examine enhancement of CYP3A4 inhibition by metabolic reaction of the compound. Here, E. coli-expressing CYP3A4 was used as an enzyme, and a reaction wherein 7-benzyloxy trifluoromethylcumarin (7-BFC) was debenzylated by the CYP3A4 enzyme into a fluorescent metabolite 7-hydroxytrifluoromethylcumarin (HFC) was employed as an indicator reaction. The reaction conditions were as follows.
Substrate: 5.6 μmol/L 7-BFC
Pre-reaction time: 0 or 30 minutes
Reaction time: 15 minutes
Reaction temperature: 25° C. (room temperature)
CYP3A4 content (E. coli-expressing enzyme): 62.5 pmol/mL at pre-reaction, […] at reaction (10-fold diluted) […]
The enzyme and a test compound solution were added to a K-Pi buffer (pH 7.4) in the aforementioned amounts for the pre-reaction so that a pre-reaction solution was prepared, and this solution was put into a 96-well microplate. […] With respect to each of the microplates on which the indicator reaction was performed, the fluorescence value of the metabolite 7-HFC was measured with a fluorescence plate reader (Ex=420 nm, Em=535 nm). […] The remaining activity (%) at each concentration after adding the test compound solution was calculated, and the IC50 value was calculated from the concentration and inhibition percentage by inverse estimation with the logistic model. […]

CYP2C19 = CYP2C19 (Homo sapiens (Human), UniProt P33261); experiment: CYP inhibition test (CYP2C19); format: in vitro ADME; conditions: pooled human liver microsomes, 4′-hydroxylation of mephenyloin
Sequence of CYP2C19 (P33261 whole entry): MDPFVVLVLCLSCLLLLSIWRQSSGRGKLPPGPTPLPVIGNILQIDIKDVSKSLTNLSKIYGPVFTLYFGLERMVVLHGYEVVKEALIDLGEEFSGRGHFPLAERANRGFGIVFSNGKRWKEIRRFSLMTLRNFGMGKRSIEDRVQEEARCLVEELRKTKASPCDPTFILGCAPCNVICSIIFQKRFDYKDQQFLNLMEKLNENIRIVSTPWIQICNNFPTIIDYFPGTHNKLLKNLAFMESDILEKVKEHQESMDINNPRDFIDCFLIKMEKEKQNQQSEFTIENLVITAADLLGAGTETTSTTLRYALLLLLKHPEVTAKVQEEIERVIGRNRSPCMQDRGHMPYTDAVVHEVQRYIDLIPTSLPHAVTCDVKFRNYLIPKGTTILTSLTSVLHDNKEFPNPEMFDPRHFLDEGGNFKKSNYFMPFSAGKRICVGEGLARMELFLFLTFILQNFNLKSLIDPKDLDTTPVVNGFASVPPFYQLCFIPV
From the text: (§1) Using commercially available pooled human liver microsomes and employing typical substrate metabolic reactions of 5 major species of human CYP enzymes (CYP1A2, 2C9, 2C19, 2D6, 3A4), namely, O-deethylation of 7-ethoxyresorufin (CYP1A2), methyl-hydroxylation of tolbutamide (CYP2C9), 4′-hydroxylation of mephenyloin (CYP2C19), O-demethylation of dextromethorphan (CYP2D6), and hydroxylation of terfenadine (CYP3A4), as indicator reactions, the degree of inhibition of each metabolite production by each test compound was evaluated.
(§2) The reaction conditions were as follows:
(§3) Substrate: 0.5 μmol/L of ethoxyresorufin (CYP1A2), 100 μmol/L of tolbutamide (CYP2C9), 50 μmol/L of S-mephenyloin (CYP2C19), 5 μmol/L of dextromethorphan (CYP2D6), 1 μmol/L of terfenadine (CYP3A4); […]
(§4) As a reaction solution, the respective five substrates, human liver microsomes, and test compound in the aforementioned amounts were added to a 50 mM Hepes buffer in a 96-well microplate. […] Centrifugation was performed for 15 minutes at 3000 rpm, and each metabolite in the centrifuged supernatant was quantified. Namely, resorufin (CYP1A2 metabolite) was quantified with a fluorescence multilabel counter, and hydroxylated tolbutamide (CYP2C9 metabolite), 4′-hydroxylated mephenyloin (CYP2C19 metabolite), dextrorphan (CYP2D6 metabolite) and alcoholized terfenadine (CYP3A4 metabolite) were quantified with LC/MS/MS. […]

CYP2D6 = CYP2D6 (Homo sapiens (Human), UniProt P10635); experiment: CYP inhibition test (CYP2D6); format: in vitro ADME; conditions: pooled human liver microsomes, O-demethylation of dextromethorphan
Sequence of CYP2D6 (P10635 whole entry): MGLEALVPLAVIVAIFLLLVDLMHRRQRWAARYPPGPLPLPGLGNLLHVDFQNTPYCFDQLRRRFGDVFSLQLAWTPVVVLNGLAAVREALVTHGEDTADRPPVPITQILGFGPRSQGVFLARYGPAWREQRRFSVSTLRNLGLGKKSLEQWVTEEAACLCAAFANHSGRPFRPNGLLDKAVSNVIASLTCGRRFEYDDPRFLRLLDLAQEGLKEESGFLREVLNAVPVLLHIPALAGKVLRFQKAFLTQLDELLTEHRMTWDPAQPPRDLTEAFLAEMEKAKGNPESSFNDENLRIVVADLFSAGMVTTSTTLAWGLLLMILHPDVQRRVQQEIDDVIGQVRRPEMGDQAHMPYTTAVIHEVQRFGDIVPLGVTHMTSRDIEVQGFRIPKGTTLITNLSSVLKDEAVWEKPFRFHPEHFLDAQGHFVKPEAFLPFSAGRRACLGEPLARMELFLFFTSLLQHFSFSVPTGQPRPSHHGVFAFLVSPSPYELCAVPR
From the text: as §1, §2, §3, §4

CYP3A4 [3] = molecular target: T1, CYP3A4; experiment: CYP inhibition test (CYP3A4); format: in vitro ADME; conditions: pooled human liver microsomes, hydroxylation of terfenadine
From the text: as §1, §2, §3, §4

CYP2C9 = CYP2C9 (Homo sapiens (Human), UniProt P11712); experiment: CYP inhibition test (CYP2C9); format: in vitro ADME; conditions: pooled human liver microsomes, methyl-hydroxylation of tolbutamide
Sequence of CYP2C9 (P11712 whole entry): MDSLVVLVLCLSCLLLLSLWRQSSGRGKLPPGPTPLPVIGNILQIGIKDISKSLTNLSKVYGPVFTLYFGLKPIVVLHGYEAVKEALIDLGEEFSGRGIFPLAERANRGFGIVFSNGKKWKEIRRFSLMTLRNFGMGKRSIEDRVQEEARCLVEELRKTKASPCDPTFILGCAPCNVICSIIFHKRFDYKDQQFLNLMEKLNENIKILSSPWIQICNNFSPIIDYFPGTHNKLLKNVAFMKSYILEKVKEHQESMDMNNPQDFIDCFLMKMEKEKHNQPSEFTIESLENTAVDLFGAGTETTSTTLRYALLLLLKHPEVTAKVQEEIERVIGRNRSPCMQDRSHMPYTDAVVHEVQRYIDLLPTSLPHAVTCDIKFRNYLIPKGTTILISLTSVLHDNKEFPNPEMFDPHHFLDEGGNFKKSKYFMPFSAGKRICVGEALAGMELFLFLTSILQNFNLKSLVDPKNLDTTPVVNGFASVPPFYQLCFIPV
From the text: as §1, §2, §3, §4

CYP1A2 = CYP1A2 (Homo sapiens (Human), UniProt P05177); experiment: CYP inhibition test (CYP1A2); format: in vitro ADME
Sequence of CYP1A2 (P05177 whole entry): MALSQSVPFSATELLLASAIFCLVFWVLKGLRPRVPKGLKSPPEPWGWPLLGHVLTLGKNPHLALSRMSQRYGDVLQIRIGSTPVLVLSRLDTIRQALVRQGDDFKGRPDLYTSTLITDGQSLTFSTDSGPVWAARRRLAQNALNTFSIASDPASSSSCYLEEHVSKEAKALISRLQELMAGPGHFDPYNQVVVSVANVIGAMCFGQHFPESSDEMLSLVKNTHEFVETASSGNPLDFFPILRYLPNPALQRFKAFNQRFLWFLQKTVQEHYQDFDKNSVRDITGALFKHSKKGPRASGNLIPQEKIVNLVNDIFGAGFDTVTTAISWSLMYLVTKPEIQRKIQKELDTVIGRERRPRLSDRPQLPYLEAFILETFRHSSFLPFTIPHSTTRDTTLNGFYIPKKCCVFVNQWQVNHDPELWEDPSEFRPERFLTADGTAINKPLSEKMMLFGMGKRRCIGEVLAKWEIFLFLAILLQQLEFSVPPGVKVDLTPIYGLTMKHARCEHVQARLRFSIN
From the text: as §1, §2, §3, §4

Solubility test = format: physicochemical; conditions: artificial intestinal juice (phosphate buffer) with 1% DMSO, fassgf or other biorelevant, kinetic from dmso stock, artificial intestinal juice pH 6.8, 16 hours at 25° C.
Protocol: The solubility of each compound was determined under 1% DMSO addition conditions. A 10 mM solution of the compound was prepared with DMSO, and 6 μL of the compound solution was added to 594 μL of an artificial intestinal juice (water and 118 mL of 0.2 mol/L NaOH reagent were added to 250 mL of 0.2 mol/L potassium dihydrogen phosphate reagent to reach 1000 mL) with a pH of 6.8. The mixture was left standing for 16 hours at 25° C., and the mixture was vacuum-filtered. The filtrate was two-fold diluted with methanol/water=1/1, and the compound concentration in the filtrate was measured with HPLC or LC/MS/MS by the absolute calibration method.

Sequence of Recombinant human BACE-1 (P56817 46-501): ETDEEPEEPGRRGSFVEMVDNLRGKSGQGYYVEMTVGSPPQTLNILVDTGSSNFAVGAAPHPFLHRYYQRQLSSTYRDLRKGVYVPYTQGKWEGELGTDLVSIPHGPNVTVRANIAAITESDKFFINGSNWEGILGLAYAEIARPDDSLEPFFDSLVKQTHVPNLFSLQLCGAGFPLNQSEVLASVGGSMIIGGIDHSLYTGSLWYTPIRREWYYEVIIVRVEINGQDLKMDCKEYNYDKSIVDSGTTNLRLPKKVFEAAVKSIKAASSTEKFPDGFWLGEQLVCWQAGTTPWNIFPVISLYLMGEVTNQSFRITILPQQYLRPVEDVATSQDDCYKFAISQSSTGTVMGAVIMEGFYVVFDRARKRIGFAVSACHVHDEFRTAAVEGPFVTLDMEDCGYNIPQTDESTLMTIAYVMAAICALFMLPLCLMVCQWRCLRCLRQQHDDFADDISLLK

CN1C(=O)CC(C)(c2cccc(NC(=O)c3cnc(Cl)cn3)c2)N=C1N (stereo not shown) [Compound 34]
IC50 (Recombinant human BACE-1): 37 nM
IC50 [1]: 76.2 nM

COc1cnc(C(=O)Nc2cccc(C3(C)CC(=O)N(C)C(N)=N3)c2)cn1 (stereo not shown) [Compound 35]
IC50 (Recombinant human BACE-1): 42 nM
residual rate (Metabolic stability test): 99.5%
IC50 [1]: 6.6 nM

C#CCOc1cnc(C(=O)Nc2cccc(C3(C)CC(=O)N(C)C(N)=N3)c2)cn1 (stereo not shown) [Compound 43]
IC50 (Recombinant human BACE-1): 56 nM
IC50 difference without vs with pre-reaction (CYP3A4 [2]): ≤ 3 µM
IC50 [1]: 28.6 nM

CC#CCOc1cnc(C(=O)Nc2cccc(C3(C)CC(=O)N(C)C(N)=N3)c2)cn1 (stereo not shown) [Compound 44]
IC50 (CYP2C19): > 20 µM
IC50 (CYP2D6): > 20 µM
IC50 (CYP3A4 [3]): > 20 µM
IC50 (Recombinant human BACE-1): 12 nM
IC50 (CYP2C9): > 20 µM
IC50 [1]: 0.7 nM
IC50 (CYP1A2): > 20 µM

COc1cnc(C(=O)Nc2cccc(CNc3cccnc3N)c2)cn1 [Compound 473]
IC50 (CYP2C19): > 20 µM
solubility at 16 h (Solubility test): > 50 µM
IC50 (CYP2D6): > 20 µM
IC50 (CYP3A4 [3]): > 20 µM
IC50 (Recombinant human BACE-1): 1980 nM
IC50 (CYP2C9): > 20 µM
IC50 [1]: 479 nM
IC50 (CYP1A2; pooled human liver microsomes, O-deethylation of 7-ethoxyresorufin, read-out: IC50 CYP1A2 inhibition): > 20 µM

COCCOc1cnc(C(=O)Nc2cccc(CNc3cccnc3N)c2)cn1 [Compound 478]
solubility at 16 h (Solubility test): > 50 µM
IC50 (Recombinant human BACE-1): 3180 nM
IC50 [1]: 811 nM

C#CCOc1cnc(C(=O)Nc2cccc(CNc3cccnc3N)c2)cn1 [Compound 481]
IC50 (Recombinant human BACE-1): 180 nM
IC50 [1]: 76.8 nM

CC#CCOc1cnc(C(=O)Nc2cccc(CNc3cccnc3N)c2)cn1 [Compound 482]
IC50 (Recombinant human BACE-1): 73 nM
IC50 [1]: 43.8 nM

C[C@@H](NC(=O)c1cc(C(=O)N[C@@H](Cc2ccccc2)[C@H](O)CNC2CC2)cc(N(C)S(C)(=O)=O)c1)c1ccccc1 [Reference Compound, reference compound]
IC50 [1]: 36.8 nM

From US8703785B2, “2-aminopyrimidin-4-one and 2-aminopyridine derivatives both having BACE1-inhibiting activity” (Shionogi & Co., Ltd., priority 2008, dated 2014)
